Results reported in ChEMBL document CHEMBL1148778, “Synthesis and characterization of nonsteroidal glucocorticoid receptor modulators for multiple myeloma” (J Med Chem, 2007).

What was measured:
[1] = molecular target: T1, Mineralocorticoid receptor (Homo sapiens) (UniProt P08235); assay: Antagonist activity at mineralocorticoid receptor by MR activation assay; type: functional; design: scale not given: the % may be the effect or the level left
T1 sequence (whole entry): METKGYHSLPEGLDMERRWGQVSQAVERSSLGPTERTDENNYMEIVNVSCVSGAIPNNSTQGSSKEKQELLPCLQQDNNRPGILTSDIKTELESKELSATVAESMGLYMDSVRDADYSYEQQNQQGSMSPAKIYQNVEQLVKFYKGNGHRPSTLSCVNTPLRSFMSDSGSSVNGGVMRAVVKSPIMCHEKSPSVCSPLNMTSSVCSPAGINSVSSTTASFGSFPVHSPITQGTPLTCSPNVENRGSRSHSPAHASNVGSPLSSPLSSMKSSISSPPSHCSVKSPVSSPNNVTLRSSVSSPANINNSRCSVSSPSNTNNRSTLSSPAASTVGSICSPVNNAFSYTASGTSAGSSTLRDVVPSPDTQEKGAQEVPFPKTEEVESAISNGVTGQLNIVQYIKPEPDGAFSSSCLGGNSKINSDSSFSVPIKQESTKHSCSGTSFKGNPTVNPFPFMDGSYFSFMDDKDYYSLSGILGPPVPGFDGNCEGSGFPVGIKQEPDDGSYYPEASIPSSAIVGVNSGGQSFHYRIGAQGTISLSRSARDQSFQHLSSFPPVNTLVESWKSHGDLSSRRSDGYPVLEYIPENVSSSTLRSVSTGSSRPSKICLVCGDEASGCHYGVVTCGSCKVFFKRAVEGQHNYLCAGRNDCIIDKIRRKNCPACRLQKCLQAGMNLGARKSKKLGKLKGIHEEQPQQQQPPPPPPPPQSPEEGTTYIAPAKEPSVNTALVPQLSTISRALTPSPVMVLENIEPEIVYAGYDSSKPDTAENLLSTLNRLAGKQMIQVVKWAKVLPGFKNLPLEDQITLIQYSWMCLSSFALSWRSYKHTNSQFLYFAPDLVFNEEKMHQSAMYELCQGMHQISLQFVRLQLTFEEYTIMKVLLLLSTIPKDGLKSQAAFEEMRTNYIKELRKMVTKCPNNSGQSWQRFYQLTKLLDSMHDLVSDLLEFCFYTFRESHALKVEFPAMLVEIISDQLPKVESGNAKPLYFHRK

Glucocorticoid receptor [2] = molecular target: T2, Glucocorticoid receptor (Homo sapiens, UniProt P04150); assay: Agonist activity at human GR expressed in CV1 cells by GRE activation assay; type: functional, cell-based, CV-1
T2 sequence (P04150 whole entry): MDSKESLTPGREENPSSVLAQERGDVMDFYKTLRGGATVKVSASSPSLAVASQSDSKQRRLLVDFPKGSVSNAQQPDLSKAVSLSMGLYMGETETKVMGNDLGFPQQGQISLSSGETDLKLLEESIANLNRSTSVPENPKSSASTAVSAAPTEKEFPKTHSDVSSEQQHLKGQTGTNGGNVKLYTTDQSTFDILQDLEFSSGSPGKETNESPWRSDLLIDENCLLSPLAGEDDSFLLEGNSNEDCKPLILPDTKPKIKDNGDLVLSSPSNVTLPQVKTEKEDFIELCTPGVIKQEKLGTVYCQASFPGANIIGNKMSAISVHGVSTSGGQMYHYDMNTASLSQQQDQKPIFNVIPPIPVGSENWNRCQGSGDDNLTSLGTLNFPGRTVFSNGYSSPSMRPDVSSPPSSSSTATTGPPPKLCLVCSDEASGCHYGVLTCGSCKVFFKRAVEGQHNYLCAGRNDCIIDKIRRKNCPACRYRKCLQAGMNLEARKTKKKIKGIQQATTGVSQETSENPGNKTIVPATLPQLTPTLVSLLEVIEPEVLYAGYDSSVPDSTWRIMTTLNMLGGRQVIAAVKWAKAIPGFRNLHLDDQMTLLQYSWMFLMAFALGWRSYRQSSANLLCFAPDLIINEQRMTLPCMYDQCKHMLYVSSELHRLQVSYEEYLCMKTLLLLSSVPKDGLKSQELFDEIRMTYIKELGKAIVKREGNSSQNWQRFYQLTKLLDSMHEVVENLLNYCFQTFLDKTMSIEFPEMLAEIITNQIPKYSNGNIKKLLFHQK

[3] = molecular target: T1, Mineralocorticoid receptor (Homo sapiens); assay: Agonist activity at mineralocorticoid receptor by MR activation assay; type: functional
Glucocorticoid receptor [4] = molecular target: T2, Glucocorticoid receptor; assay: Activity at human GR expressed in NHDFneo cells assessed as inhibition of IL-6 production; type: cell-based
RPMI-8226 [5] = assay: Antiproliferative activity against human RPMI8226 cells after 4 days; type: functional, cell-based; details: RPMI-8226, 96 h
Glucocorticoid receptor [6] = molecular target: T2, Glucocorticoid receptor; assay: Binding affinity to GR
RPMI-8226 [7] = assay: Inhibition of tumor growth in human RPMI8226 cells xenografted nude mouse at 3 mg/kg, po after 4 weeks relative to Dexamethasone; type: functional
RPMI-8226 [8] = assay: Inhibition of tumor growth in human RPMI8226 cells xenografted nude mouse at 30 mg/kg, po after 4 weeks relative to Dexamethasone; type: functional
RPMI-8226 [9] = assay: Inhibition of tumor growth in human RPMI8226 cells xenografted nude mouse at 100 mg/kg, po after 4 weeks relative to Dexamethasone; type: functional
RPMI-8226 [10] = assay: Inhibition of tumor growth in human RPMI8226 cells xenografted nude mouse at 10 mg/kg, po after 4 weeks relative to Dexamethasone; type: functional

| Activity [1] [%] | EC50 (Glucocorticoid receptor [2]) [nM] | Activity [3] [%] | IC50 (Glucocorticoid receptor [4]) [nM] | IC50 (RPMI-8226 [5]) [nM] | Ki (Glucocorticoid receptor [6]) [nM] | Compound | Efficacy (RPMI-8226 [7]) [%] | Efficacy (RPMI-8226 [8]) [%] | Efficacy (RPMI-8226 [9]) [%] | Efficacy (RPMI-8226 [10]) [%] |
| --- | --- | --- | --- | --- | --- | --- | --- | --- | --- | --- |
| 55 | 0.2 | 25 | 0.2 | 8.5 | 0.2 | COCc1ccsc1/C=C1\Oc2ccc(O)c(OC)c2-c2ccc3c(c21)C(C)=CC(C)(C)N3 | – | – | – | – |
| – | 0.2 | – | 0.2 | 4.9 | 0.7 | COc1c(O)ccc2c1-c1ccc3c(c1/C(=C/c1sccc1CO)O2)C(C)=CC(C)(C)N3 | 29 | 80 | 97 | – |

| Compound | Activity [1] [%] | EC50 (Glucocorticoid receptor [2]) [nM] | Activity [3] [%] | IC50 (Glucocorticoid receptor [4]) [nM] | IC50 (RPMI-8226 [5]) [nM] | Ki (Glucocorticoid receptor [6]) [nM] | Efficacy (RPMI-8226 [7]) [%] | Efficacy (RPMI-8226 [8]) [%] | Efficacy (RPMI-8226 [9]) [%] | Efficacy (RPMI-8226 [10]) [%] |
| --- | --- | --- | --- | --- | --- | --- | --- | --- | --- | --- |
| CO/N=C(\C)c1ccsc1/C=C1\Oc2ccc(O)c(OC)c2-c2ccc3c(c21)C(C)=CC(C)(C)N3 | – | 0.1 | – | 0.2 | 9.5 | 1.1 | – | 82 | 95 | 78 |
